Test results published in ChEMBL document CHEMBL4359930, “Discovery of novel Cyclophilin D inhibitors starting from three dimensional fragments with millimolar potencies” (Bioorg Med Chem Lett, 2019).

Assay: Binding affinity to recombinant human CypD K175I mutant (44 to 207 residues) expressed in Escherichia coli cells assessed as dissociation constant by SPR analysis

| SMILES | Kd |
| --- | --- |
| CCN1Cc2cc(NC(=O)NCC(=O)N3CCC[C@@H]3c3ccccc3SC)ccc2NCCC1=O | 260 µM |
| CSc1ccccc1[C@H]1CCCN1C(=O)CN(C)C(=O)NCc1ccc2c(c1)[C@H]1C[C@@H](N2)[C@H](O)CO1 | 7 µM |
| CCn1nnc(NC(=O)c2ccccc2)n1 | 3900 µM |
| Cc1onc(-c2ccncc2)c1C(=O)O | > 10000 µM |
| O=C(O)CN1C(=O)[C@@H]2[C@@H]3CC[C@@H](C3)[C@@H]2C1=O | > 10000 µM |
| CSc1ccccc1[C@@H]1CCCN1C(=O)C(=O)NCc1ccc2c(c1)[C@H]1C[C@@H](N2)[C@H](O)CO1 | > 240 µM |
| CCN1Cc2cc3c(cc2NCCC1=O)OCO3 | 7500 µM |
| O=C(NCc1ccc2c(c1)[C@@H]1C[C@H](N2)[C@H](O)CO1)C(=O)N1CCCC1 | 217 µM |
| Nc1ccc(CCNC(=O)CN2C(=O)C3C4CCC(C4)C3C2=O)cc1 (stereo not given) | > 200 µM |
| O=C(CN1C(=O)[C@@H]2[C@@H]3CC[C@@H](C3)[C@@H]2C1=O)NCc1ccc2c(c1)[C@H]1C[C@@H](N2)[C@H](O)CO1 | 0.66 µM |
| O=C(NCc1ccc2c(c1)[C@H]1C[C@@H](N2)[C@H](O)CO1)C(=O)N1CCCC1 | > 1500 µM |
| CCN1Cc2cc(CCC(=O)NCCC(=O)N3CCC[C@@H]3c3ccccc3SC)ccc2NCCC1=O | 420 µM |
| CSc1ccccc1[C@H]1CCCN1C(=O)CNC(=O)CCc1ccc2c(c1)[C@@H]1C[C@H](N2)[C@H](O)CO1 | 39 µM |
| O[C@@H]1CO[C@@H]2C[C@H]1Nc1ccc(F)cc12 | 7100 µM |
| CSc1ccccc1[C@H]1CCCN1C(=O)C(=O)NCc1ccc2c(c1)[C@H]1C[C@@H](N2)[C@H](O)CO1 | 184 µM |
| CCN1Cc2cc(CCC(=O)NCC(=O)N3CCC[C@@H]3c3ccccc3SC)ccc2NCCC1=O | 2.3 µM |
| CCN1Cc2cc(NC(=O)CN3C(=O)C4C(C3=O)[C@H]3CC[C@@H]4C3)ccc2NCCC1=O (stereo not given in full) | > 6000 µM |
| O=C(NCc1ccccn1)C(=O)NC1CCCC1 | 1100 µM |
| CCN1Cc2cc(CNC(=O)NCC(=O)N3CCC[C@@H]3c3ccccc3SC)ccc2NCCC1=O | 0.18 µM |
| O=C(CN1C(=O)[C@@H]2[C@H]3CC[C@H](C3)[C@@H]2C1=O)NCc1ccc2c(c1)[C@H]1C[C@@H](N2)[C@H](O)CO1 | 1.2 µM |
